Publication PMC7004250 (Cell chemical biology, 2019)

What was measured:
[1] = molecular target: EED in DB cells (EZH2^Y641N) (Homo sapiens, UniProt O75530); experiment: Western blot EED degradation in DB cells; type: cell-based
Pfeiffer cells = experiment: Pfeiffer cell proliferation; type: cell-based, human; conditions: up to 12 days, 3 μM (Figure 6B)
EED in HeLa cells [2] = molecular target: T1, EED in HeLa cells (Homo sapiens, UniProt O75530); experiment: Western blot EED degradation in HeLa cells; type: cell-based; conditions: for EED protein levels: 10 μM, 24 to 72 hrs
T1 sequence (O75530 whole entry, the tested form may be a part): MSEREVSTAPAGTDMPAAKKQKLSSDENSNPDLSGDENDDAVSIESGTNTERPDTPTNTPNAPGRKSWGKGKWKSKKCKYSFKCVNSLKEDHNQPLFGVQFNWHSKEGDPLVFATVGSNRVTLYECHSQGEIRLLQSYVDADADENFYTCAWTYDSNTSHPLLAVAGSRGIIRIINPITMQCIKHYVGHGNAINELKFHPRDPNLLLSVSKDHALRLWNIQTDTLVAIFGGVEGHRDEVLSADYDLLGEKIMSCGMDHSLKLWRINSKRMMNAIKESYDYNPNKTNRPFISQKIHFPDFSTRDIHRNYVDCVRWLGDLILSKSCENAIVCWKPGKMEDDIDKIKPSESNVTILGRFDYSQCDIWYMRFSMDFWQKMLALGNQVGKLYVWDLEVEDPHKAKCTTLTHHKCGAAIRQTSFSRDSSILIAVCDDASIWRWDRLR

[3] = molecular target: 6XHis-tagged recombinant EED (residues 1 – 441) (Homo sapiens, UniProt O75530); experiment: TR-FRET EED binding assay; conditions: TR-FRET EED IC50 relative to EED226
Sequence of 6XHis-tagged recombinant EED (residues 1 – 441) (O75530 whole entry, the tested form may be a part): as above

EZH2 in HeLa cells [4] = experiment: Jess ProteinSimple analysis of EZH2 levels; type: cell-based, human; conditions: 5 μM, 4, 24 and 48 hrs, decrease stated at 24 hrs
[5] = test system: SUZ12 in DB cells (EZH2^Y641N); experiment: Western blot SUZ12 degradation in DB cells; type: cell-based, human
[6] = test system: EZH2/EZH2^Y641N in DB cells; experiment: Western blot EZH2 degradation in DB cells; type: cell-based, human
DB cells = experiment: DB cell proliferation; type: cell-based, human; conditions: up to 12 days, 3 μM (Figure 6A)
SUZ12 in HeLa cells [7] = experiment: Global proteomics; type: cell-based, human; conditions: 10 μM, 24 hrs, TMT proteomics
[8] = molecular target: PRC2 subunits in Pfeiffer cells (EZH2^A677G) (Homo sapiens, UniProt O75530); experiment: PRC2 degradation in Pfeiffer cells; type: cell-based; conditions: Figure S6
Sequence of PRC2 subunits in Pfeiffer cells (EZH2^A677G) (O75530 whole entry, stated change not applied): as the sequence (O75530 whole entry, the tested form may be a part) above
Sequence of PRC2 subunits in Pfeiffer cells (EZH2^A677G) (Q15910 whole entry A677G partner): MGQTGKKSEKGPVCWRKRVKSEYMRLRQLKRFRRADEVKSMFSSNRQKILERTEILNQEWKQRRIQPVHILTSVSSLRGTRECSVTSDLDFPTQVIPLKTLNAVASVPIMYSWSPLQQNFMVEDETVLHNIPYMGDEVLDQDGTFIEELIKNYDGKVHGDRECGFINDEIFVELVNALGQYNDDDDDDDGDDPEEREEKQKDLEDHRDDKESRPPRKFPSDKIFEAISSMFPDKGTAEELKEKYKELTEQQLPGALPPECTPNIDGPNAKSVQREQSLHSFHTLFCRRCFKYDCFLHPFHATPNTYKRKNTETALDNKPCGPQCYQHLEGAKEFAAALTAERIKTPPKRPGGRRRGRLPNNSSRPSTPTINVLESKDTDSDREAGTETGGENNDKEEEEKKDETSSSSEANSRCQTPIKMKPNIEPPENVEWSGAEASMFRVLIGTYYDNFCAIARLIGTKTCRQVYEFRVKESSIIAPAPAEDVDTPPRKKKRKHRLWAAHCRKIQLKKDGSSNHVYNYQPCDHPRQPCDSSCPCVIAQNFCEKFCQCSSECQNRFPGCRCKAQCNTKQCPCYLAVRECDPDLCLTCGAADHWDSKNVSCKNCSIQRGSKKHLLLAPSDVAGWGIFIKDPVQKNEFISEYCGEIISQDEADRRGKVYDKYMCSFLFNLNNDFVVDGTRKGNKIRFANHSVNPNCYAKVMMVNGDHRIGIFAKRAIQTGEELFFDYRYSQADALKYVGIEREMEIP
Sequence of PRC2 subunits in Pfeiffer cells (EZH2^A677G) (Q15022 whole entry partner): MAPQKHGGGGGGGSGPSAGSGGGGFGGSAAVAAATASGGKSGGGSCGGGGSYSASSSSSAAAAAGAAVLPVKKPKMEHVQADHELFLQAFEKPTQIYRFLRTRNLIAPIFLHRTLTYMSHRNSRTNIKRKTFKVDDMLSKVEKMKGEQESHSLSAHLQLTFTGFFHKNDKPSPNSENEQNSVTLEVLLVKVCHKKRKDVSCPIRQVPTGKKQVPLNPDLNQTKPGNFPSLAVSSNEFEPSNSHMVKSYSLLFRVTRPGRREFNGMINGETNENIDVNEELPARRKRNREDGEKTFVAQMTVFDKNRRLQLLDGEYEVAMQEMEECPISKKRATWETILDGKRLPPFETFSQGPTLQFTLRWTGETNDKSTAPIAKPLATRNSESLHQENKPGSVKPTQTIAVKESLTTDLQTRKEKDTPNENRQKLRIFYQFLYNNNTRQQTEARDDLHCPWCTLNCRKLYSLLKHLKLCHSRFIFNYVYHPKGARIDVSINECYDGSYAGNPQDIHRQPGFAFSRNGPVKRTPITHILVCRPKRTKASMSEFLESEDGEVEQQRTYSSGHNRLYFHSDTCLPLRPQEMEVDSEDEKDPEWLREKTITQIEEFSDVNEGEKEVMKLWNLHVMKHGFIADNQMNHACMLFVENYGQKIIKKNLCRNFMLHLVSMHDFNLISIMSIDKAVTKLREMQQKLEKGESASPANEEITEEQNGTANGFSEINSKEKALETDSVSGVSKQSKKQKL

SUZ12 in HeLa cells [9] = experiment: Western blot SUZ12 degradation in HeLa cells; type: cell-based, human
[10] = test system: H3K27me3 in DB cells (EZH2^Y641N); experiment: Western blot H3K27me3 levels in DB cells; type: cell-based, human; conditions: 10 μM, after 72 hours
DB cell viability = type: cell-based; conditions: human, DB cells
EED in HeLa cells [11] = molecular target: T1, EED in HeLa cells; experiment: Jess ProteinSimple analysis of EED levels; type: cell-based; conditions: 5 μM, 4, 24 and 48 hrs, decrease stated at 24 hrs
H3K27me3 in HeLa cells = experiment: Western blot H3K27me3 levels in HeLa cells; type: cell-based, human; conditions: for H3K27me3 reduced: 10 μM, after 72 hours
HeLa cells = experiment: Cellular toxicity in HeLa cells; type: cell-based, human; conditions: concentrations up to 30 μM
EZH2 in HeLa cells [12] = experiment: Western blot EZH2 degradation in HeLa cells; type: cell-based, human; conditions: for EZH2 protein levels: 10 μM, 24 to 72 hrs
EED = conditions: read-out: reported IC50 (EED); ref Huang et al., 2017; cited from earlier work

Sequence of EED in DB cells (EZH2^Y641N) (O75530 2-441 limits assumed, stated change not applied): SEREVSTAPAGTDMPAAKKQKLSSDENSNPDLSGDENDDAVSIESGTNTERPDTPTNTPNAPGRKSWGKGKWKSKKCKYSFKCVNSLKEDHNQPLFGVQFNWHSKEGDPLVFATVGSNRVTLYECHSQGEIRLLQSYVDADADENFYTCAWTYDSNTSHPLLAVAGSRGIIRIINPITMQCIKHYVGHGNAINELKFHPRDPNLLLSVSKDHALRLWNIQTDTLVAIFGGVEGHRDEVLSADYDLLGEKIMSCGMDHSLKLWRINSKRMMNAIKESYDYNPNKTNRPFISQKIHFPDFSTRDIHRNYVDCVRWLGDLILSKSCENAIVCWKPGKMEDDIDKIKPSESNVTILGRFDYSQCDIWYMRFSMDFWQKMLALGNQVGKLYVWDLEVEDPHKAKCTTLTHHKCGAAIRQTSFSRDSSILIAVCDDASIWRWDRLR

## Cc1ncsc1-c1ccc(CNC(=O)[C@@H]2C[C@@H](O)CN2C(=O)[C@@H](NC(=O)CCCNC(=O)c2ccc(-c3cnc(NCc4ccco4)n4cnnc34)cc2)C(C)(C)C)cc1 [UNC6852, (2S,4R)-1-((S)-2-(4-(4-(5-((furan-2-ylmethyl)amino)-[1,2,4]triazolo[4,3-c]pyrimidin-8-yl)benzamido)butanamido)-3,3-dimethylbutanoyl)-4-hydroxy-N-(4-(4-methylthiazol-5-yl)benzyl)pyrrolidine-2-carboxamide]
[1]; DB, read-out: Dmax EED
  Dmax: 94%
[1]; read-out: DC50 EED, DB cells, 24 hours
  DC50: 610 ± 180 nM
Pfeiffer cells
  effect on cell proliferation: robust anti-proliferative effects
EED in HeLa cells [2]; HeLa cells, 5 μM, 24 hours, western blot
  EED degradation: 80%
EED in HeLa cells [2]; HeLa cells
  EED protein levels: decrease in protein levels
EED in HeLa cells [2]; HeLa, read-out: Dmax EED (maximal degradation)
  Dmax at 30 µM: 92%
[3]
  loss in potency compared to EED226: 5.5 fold
EZH2 in HeLa cells [4]
  EZH2 levels (Jess): decrease in the levels
[5]; DB cells
  Dmax SUZ12: 82%
[5]; DB vs HeLa
  maximal degradation of SUZ12 in DB cells relative to HeLa cells: 3.7 fold
[5]; read-out: half maximal degradation concentration SUZ12, DB cells, 24 hours
  EC50: 590 ± 170 nM
[6]
  Dmax EZH2/EZH2^Y641N: 96%
[6]; read-out: DC50 EZH2/EZH2^Y641N, 24 hours
  DC50: 670 ± 240 nM
DB cells
  effect on cell proliferation: robust anti-proliferative effects
SUZ12 in HeLa cells [7]
  SUZ12 degradation (proteomics): 21%
  SUZ12 log2 fold change (treated/DMSO treated): −0.34
[8]
  degradation of PRC2 subunits: degradation of all three PRC2 subunits
SUZ12 in HeLa cells [9]; western blot
  Dmax SUZ12 (maximal degradation): 22%
[10]
  loss of H3K27me3: 71%
DB cell viability
  viability at 12 days, 3 μM: 95%
EED in HeLa cells [11]
  EED levels (Jess): decrease in the levels
H3K27me3 in HeLa cells
  H3K27me3 reduced: 51%
H3K27me3 in HeLa cells; 96 hours of treatment
  H3K27me3 levels after 96 hours: further decrease in H3K27me3 levels
HeLa cells
  cellular toxicity: no cellular toxicity was observed
EZH2 in HeLa cells [12]; 5 μM, 24 hours, western blot
  EZH2 degradation: 76%
EZH2 in HeLa cells [12]
  EZH2 protein levels: decrease in protein levels
EZH2 in HeLa cells [12]; % degradation at 30 μM after 24 hours
  Dmax EZH2 (maximal degradation): 75%

## Cc1ncsc1-c1ccc(CNC(=O)[C@@H]2C[C@@H](O)CN2C(=O)[C@@H](NC(=O)CCOCCOCCOCCOCCNC(=O)c2ccc(-c3cnc(NCc4ccco4)n4cnnc34)cc2)C(C)(C)C)cc1 [UNC6847, (2S,4R)-1-((S)-19-(tert-butyl)-1-(4-(5-((furan-2-ylmethyl)amino)-[1,2,4]triazolo[4,3-c]pyrimidin-8-yl)phenyl)-1,17-dioxo-5,8,11,14-tetraoxa-2,18-diazaicosan-20-oyl)-4-hydroxy-N-(4-(4-methylthiazol-5-yl)benzyl)pyrrolidine-2-carboxamide]
[3]
  loss in potency compared to EED226: 5 fold
EZH2 in HeLa cells [4]
  EZH2 levels (Jess): unable to alter the levels
EED in HeLa cells [11]
  EED levels (Jess): unable to alter the levels

## CCCc1cc(C)[nH]c(=O)c1CNC(=O)c1cc(-c2ccc(N3CCN(C(C)C)CC3)nc2)cc2c1cnn2C(C)C [UNC1999, reference compound]
EED in HeLa cells [2]; HeLa cells
  EED protein levels: had no effect
DB cell viability
  viability at 12 days, 3 μM: 67%
H3K27me3 in HeLa cells
  H3K27me3 reduced: 60%
EZH2 in HeLa cells [12]
  EZH2 protein levels: had no effect

## Cc1ncsc1-c1ccc(CNC(=O)[C@@H]2C[C@@H](O)CN2C(=O)[C@@H](NC(=O)CCCCNC(=O)c2ccc(-c3cnc(NCc4ccco4)n4cnnc34)cc2)C(C)(C)C)cc1 [UNC6853, (2S,4R)-1-((S)-2-(5-(4-(5-((furan-2-ylmethyl)amino)-[1,2,4]triazolo[4,3-c]pyrimidin-8-yl)benzamido)pentanamido)-3,3-dimethylbutanoyl)-4-hydroxy-N-(4-(4-methylthiazol-5-yl)benzyl)pyrrolidine-2-carboxamide]
[3]
  loss in potency compared to EED226: 8 fold
EZH2 in HeLa cells [4]
  EZH2 levels (Jess): significant degradation was not observed
EED in HeLa cells [11]
  EED levels (Jess): significant degradation was not observed

## Cc1ncsc1-c1ccc(CNC(=O)[C@@H]2C[C@@H](O)CN2C(=O)[C@@H](NC(=O)COCCOCCOCCNC(=O)c2ccc(-c3cnc(NCc4ccco4)n4cnnc34)cc2)C(C)(C)C)cc1 [UNC6846, (2S,4R)-1-((S)-15-(tert-butyl)-1-(4-(5-((furan-2-ylmethyl)amino)-[1,2,4]triazolo[4,3-c]pyrimidin-8-yl)phenyl)-1,13-dioxo-5,8,11-trioxa-2,14-diazahexadecan-16-oyl)-4-hydroxy-N-(4-(4-methylthiazol-5-yl)benzyl)pyrrolidine-2-carboxamide]
[3]
  loss in potency compared to EED226: 14 fold
EZH2 in HeLa cells [4]
  EZH2 levels (Jess): unable to alter the levels
EED in HeLa cells [11]
  EED levels (Jess): unable to alter the levels

## Cc1ncsc1-c1ccc(CNC(=O)[C@@H]2C[C@@H](O)CN2C(=O)[C@@H](NC(=O)CCOCCOCCNC(=O)c2ccc(-c3cnc(NCc4ccco4)n4cnnc34)cc2)C(C)(C)C)cc1 [UNC6845, (2S,4R)-1-((S)-13-(tert-butyl)-1-(4-(5-((furan-2-ylmethyl)amino)-[1,2,4]triazolo[4,3-c]pyrimidin-8-yl)phenyl)-1,11-dioxo-5,8-dioxa-2,12-diazatetradecan-14-oyl)-4-hydroxy-N-(4-(4-methylthiazol-5-yl)benzyl)pyrrolidine-2-carboxamide]
[3]
  loss in potency compared to EED226: 2 fold
EZH2 in HeLa cells [4]
  EZH2 levels (Jess): unable to alter the levels
EED in HeLa cells [11]
  EED levels (Jess): unable to alter the levels

## Cc1ncsc1-c1ccc(CNC(=O)[C@@H]2C[C@@H](O)CN2C(=O)[C@@H](NC(=O)CCNC(=O)c2ccc(-c3cnc(NCc4ccco4)n4cnnc34)cc2)C(C)(C)C)cc1 [UNC6851, (2S,4R)-1-((S)-2-(3-(4-(5-((furan-2-ylmethyl)amino)-[1,2,4]triazolo[4,3-c]pyrimidin-8-yl)benzamido)propanamido)-3,3-dimethylbutanoyl)-4-hydroxy-N-(4-(4-methylthiazol-5-yl)benzyl)pyrrolidine-2-carboxamide]
[3]
  loss in potency compared to EED226: 6 fold
EZH2 in HeLa cells [4]
  EZH2 levels (Jess): decrease in the levels
EED in HeLa cells [11]
  EED levels (Jess): decrease in the levels

## Cc1ncsc1-c1ccc(CNC(=O)[C@@H]2C[C@H](O)CN2C(=O)[C@@H](NC(=O)CCCNC(=O)c2ccc(-c3cnc(NCc4ccco4)n4cnnc34)cc2)C(C)(C)C)cc1 [UNC7043, (2S,4S)-1-((S)-2-(4-(4-(5-((furan-2-ylmethyl)amino)-[1,2,4]triazolo[4,3-c]pyrimidin-8-yl)benzamido)butanamido)-3,3-dimethylbutanoyl)-4-hydroxy-N-(4-(4-methylthiazol-5-yl)benzyl)pyrrolidine-2-carboxamide]
[1]; DB cells, 10 μM for 24 hours
  EED levels (western blot): did not affect the levels
Pfeiffer cells
  effect on cell proliferation: had no effect on cell proliferation
EED in HeLa cells [2]; HeLa cells, 10 μM for 24 hrs
  EED degradation (western blot): did not degrade
[5]; DB cells, 10 μM for 24 hours
  SUZ12 levels (western blot): did not affect the levels
[6]; 10 μM for 24 hours
  EZH2 levels (western blot): did not affect the levels
DB cells
  effect on cell proliferation: had no effect on cell proliferation
SUZ12 in HeLa cells [9]; 10 μM for 24 hrs
  SUZ12 degradation (western blot): did not degrade
EZH2 in HeLa cells [12]; 10 μM for 24 hrs
  EZH2 degradation (western blot): did not degrade

## CS(=O)(=O)c1ccc(-c2cnc(NCc3ccco3)n3cnnc23)cc1 [EED226, reference compound]
EED in HeLa cells [2]; HeLa cells
  EED protein levels: had no effect
EED
  IC50: 22 nM
DB cell viability
  viability at 12 days, 3 μM: 67%
H3K27me3 in HeLa cells
  H3K27me3 reduced: 52%
EZH2 in HeLa cells [12]
  EZH2 protein levels: had no effect
